From PubChem BioAssay (NCI)
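Grown in 96-well plates, cells were treated for 48 hours with each compound at five concentrations. Insufficient inhibition: endpoint recorded as highest concentration tested. Definition used: TGI = concentration required for complete inhibition of growth.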

Key:
Experiment in all cases: NCI tumour cell line growth inhibition, 48 h
HOP-92 NSCLC = tested on: HOP-92 NSCLC
TK-10 renal = tested on: TK-10 renal
SNB-78 CNS = tested on: SNB-78 CNS
HT29 colon = tested on: HT29 colon
BT-549 breast = tested on: BT-549 breast
HS 578T breast = tested on: HS 578T breast
HCT-116 colon = tested on: HCT-116 colon
NCI-H522 lung = tested on: NCI-H522 lung
SK-OV-3 ovarian = tested on: SK-OV-3 ovarian
SN12C renal = tested on: SN12C renal
DMS 273 small cell lung = tested on: DMS 273 small cell lung
CCRF-CEM leukemia = tested on: CCRF-CEM leukemia
SK-MEL-2 melanoma = tested on: SK-MEL-2 melanoma
SF-539 CNS = tested on: SF-539 CNS
M19-MEL melanoma = tested on: M19-MEL melanoma
HCT-15 colon = tested on: HCT-15 colon
M14 melanoma = tested on: M14 melanoma
MCF7 breast = tested on: MCF7 breast
DU-145 prostate = tested on: DU-145 prostate
NCI-H460 lung = tested on: NCI-H460 lung
NCI-H23 lung = tested on: NCI-H23 lung
SK-MEL-5 melanoma = tested on: SK-MEL-5 melanoma
786-0 renal = tested on: 786-0 renal
KM20L2 colon = tested on: KM20L2 colon
LXFL 529 NSCLC = tested on: LXFL 529 NSCLC
MOLT-4 leukemia = tested on: MOLT-4 leukemia
HCC-2998 colon = tested on: HCC-2998 colon
RXF-631 renal = tested on: RXF-631 renal
SF-268 CNS = tested on: SF-268 CNS
OVCAR-8 ovarian = tested on: OVCAR-8 ovarian
UACC-257 melanoma = tested on: UACC-257 melanoma
EKVX NSCLC = tested on: EKVX NSCLC
UACC-62 melanoma = tested on: UACC-62 melanoma
XF 498 CNS = tested on: XF 498 CNS
ACHN renal = tested on: ACHN renal
SNB-19 CNS = tested on: SNB-19 CNS
MDA-N = tested on: MDA-N
HOP-18 NSCLC = tested on: HOP-18 NSCLC
DLD-1 colon = tested on: DLD-1 colon
SNB-75 CNS = tested on: SNB-75 CNS
KM12 colon = tested on: KM12 colon
OVCAR-4 ovarian = tested on: OVCAR-4 ovarian
RXF 393 renal = tested on: RXF 393 renal
CAKI-1 renal = tested on: CAKI-1 renal
NCI-H226 lung = tested on: NCI-H226 lung
OVCAR-3 ovarian = tested on: OVCAR-3 ovarian
K-562 leukemia = tested on: K-562 leukemia
HOP-62 NSCLC = tested on: HOP-62 NSCLC
PC-3 prostate = tested on: PC-3 prostate
COLO 205 colon = tested on: COLO 205 colon
T-47D breast = tested on: T-47D breast
MALME-3M melanoma = tested on: MALME-3M melanoma
DMS 114 small cell lung = tested on: DMS 114 small cell lung
LOX IMVI melanoma = tested on: LOX IMVI melanoma
IGROV1 ovarian = tested on: IGROV1 ovarian
OVCAR-5 ovarian = tested on: OVCAR-5 ovarian
HL-60(TB) leukemia = tested on: HL-60(TB) leukemia
UO-31 renal = tested on: UO-31 renal
SF-295 CNS = tested on: SF-295 CNS
A549 NSCLC = tested on: A549 NSCLC
RPMI-8226 leukemia = tested on: RPMI-8226 leukemia
SW-620 colon = tested on: SW-620 colon
SR leukemia = tested on: SR leukemia
U251 CNS = tested on: U251 CNS
A498 renal = tested on: A498 renal
SK-MEL-28 melanoma = tested on: SK-MEL-28 melanoma
P388 leukemia = tested on: P388 leukemia
SN12K1 renal = tested on: SN12K1 renal
P388/ADR leukemia = tested on: P388/ADR leukemia
NCI/ADR-RES ovarian = tested on: NCI/ADR-RES ovarian

In the case of CC(=O)c1cccc(NC(=O)C(=O)NNc2n[nH]c(=S)n2N)c1, the TGI (HOP-92 NSCLC) is reported as 28.7 µM, the TGI (TK-10 renal) is reported as 69.9 µM and the TGI (SNB-78 CNS) is reported as 35 µM. It also gave a TGI (HT29 colon) of 31.8 µM, a TGI (BT-549 breast) of 6.65 µM and a TGI (HS 578T breast) of 7.48 µM. For the same compound, the TGI (HCT-116 colon) was 12.8 µM, the TGI (NCI-H522 lung) was 21 µM and the TGI (SK-OV-3 ovarian) was 43.1 µM. For the same compound, the TGI (SN12C renal) was 20.3 µM, the TGI (DMS 273 small cell lung) was 18.7 µM and the TGI (CCRF-CEM leukemia) was 20.3 µM. The TGI (SK-MEL-2 melanoma) was 13.1 µM, the TGI (SF-539 CNS) was 18.6 µM and the TGI (M19-MEL melanoma) was 2.36 µM. The TGI (HCT-15 colon) was 15.9 µM, the TGI (M14 melanoma) was 6.15 µM and the TGI (MCF7 breast) was 18.7 µM. For the same compound, the TGI (DU-145 prostate) was 19.2 µM, the TGI (NCI-H460 lung) was 13.3 µM and the TGI (NCI-H23 lung) was 11.4 µM. For the same compound, the TGI (SK-MEL-5 melanoma) was 2.6 µM, the TGI (786-0 renal) was 25.5 µM and the TGI (KM20L2 colon) was 46.1 µM. For the same compound, the TGI (LXFL 529 NSCLC) was 22.5 µM, the TGI (MOLT-4 leukemia) was 18.3 µM and the TGI (HCC-2998 colon) was 27.5 µM. For the same compound, the TGI (RXF-631 renal) was 10.9 µM, the TGI (SF-268 CNS) was 27.7 µM and the TGI (OVCAR-8 ovarian) was 24.1 µM. For the same compound, the TGI (UACC-257 melanoma) was 9.17 µM, the TGI (EKVX NSCLC) was 29 µM and the TGI (UACC-62 melanoma) was 3.72 µM. The TGI (XF 498 CNS) was 25.7 µM, the TGI (ACHN renal) was 19.7 µM and the TGI (SNB-19 CNS) was 21.2 µM. The TGI (MDA-N) was 3.8 µM, the TGI (HOP-18 NSCLC) was 24.2 µM and the TGI (DLD-1 colon) was 31.6 µM. For the same compound, the TGI (SNB-75 CNS) was 25.2 µM, the TGI (KM12 colon) was 30.9 µM and the TGI (OVCAR-4 ovarian) was 23.4 µM. It also gave a TGI (RXF 393 renal) of 24.1 µM, a TGI (CAKI-1 renal) of 34.4 µM and a TGI (NCI-H226 lung) of 20.1 µM. For the same compound, the TGI (OVCAR-3 ovarian) was 15.9 µM, the TGI (K-562 leukemia) was 27.6 µM and the TGI (HOP-62 NSCLC) was 29.3 µM. It also gave a TGI (PC-3 prostate) of 23 µM, a TGI (COLO 205 colon) of 27.9 µM and a TGI (T-47D breast) of 13.6 µM. It also gave a TGI (MALME-3M melanoma) of 5.18 µM, a TGI (DMS 114 small cell lung) of 3.93 µM and a TGI (LOX IMVI melanoma) of 4.57 µM. It also gave a TGI (IGROV1 ovarian) of 25.8 µM, a TGI (OVCAR-5 ovarian) of 33.1 µM and a TGI (HL-60(TB) leukemia) of 32.1 µM. It also gave a TGI (UO-31 renal) of 22.6 µM, a TGI (SF-295 CNS) of 16.9 µM and a TGI (A549 NSCLC) of 14.5 µM. The TGI (RPMI-8226 leukemia) was 58.8 µM, the TGI (SW-620 colon) was 22.5 µM and the TGI (SR leukemia) was 16.1 µM. The TGI (U251 CNS) was 12 µM, the TGI (A498 renal) was 37.7 µM and the TGI (SK-MEL-28 melanoma) was 18.5 µM.
With COc1ccc(C2COc3cc(OC(C)=O)c(OC(C)=O)cc3C2)cc1 (stereo not drawn) the TGI (HOP-92 NSCLC) was 23.6 µM, the TGI (SNB-78 CNS) was 81.4 µM and the TGI (P388 leukemia) was 33.5 µM. It also gave a TGI (HT29 colon) of 56.1 µM, a TGI (SN12K1 renal) of 35.7 µM and a TGI (HCT-116 colon) of 47.3 µM. The TGI (NCI-H522 lung) was 6.3 µM, the TGI (SK-OV-3 ovarian) was 82.3 µM and the TGI (SN12C renal) was 32.9 µM. The TGI (P388/ADR leukemia) was 17.7 µM, the TGI (DMS 273 small cell lung) was 52.7 µM and the TGI (CCRF-CEM leukemia) was 16.4 µM. For the same compound, the TGI (SK-MEL-2 melanoma) was 58.7 µM, the TGI (SF-539 CNS) was 37.8 µM and the TGI (M19-MEL melanoma) was 37.7 µM. For the same compound, the TGI (HCT-15 colon) was 52.9 µM, the TGI (MCF7 breast) was 62.7 µM and the TGI (NCI-H460 lung) was 41.7 µM. For the same compound, the TGI (NCI-H23 lung) was 63.1 µM, the TGI (SK-MEL-5 melanoma) was 48.2 µM and the TGI (KM20L2 colon) was 65.8 µM. For the same compound, the TGI (MOLT-4 leukemia) was 29.1 µM, the TGI (HCC-2998 colon) was 48.3 µM and the TGI (SF-268 CNS) was 37 µM. It also gave a TGI (OVCAR-8 ovarian) of 44.9 µM, a TGI (NCI/ADR-RES ovarian) of 101 µM and a TGI (UACC-257 melanoma) of 46.5 µM. For the same compound, the TGI (EKVX NSCLC) was 51.1 µM, the TGI (UACC-62 melanoma) was 43.5 µM and the TGI (XF 498 CNS) was 23.9 µM. The TGI (SNB-19 CNS) was 33.4 µM, the TGI (HOP-18 NSCLC) was 19.3 µM and the TGI (DLD-1 colon) was 54.8 µM. For the same compound, the TGI (SNB-75 CNS) was 25.8 µM, the TGI (KM12 colon) was 34 µM and the TGI (OVCAR-4 ovarian) was 36.8 µM. The TGI (RXF 393 renal) was 34.1 µM, the TGI (CAKI-1 renal) was 51.1 µM and the TGI (NCI-H226 lung) was 52.9 µM. The TGI (OVCAR-3 ovarian) was 39.9 µM, the TGI (K-562 leukemia) was 80 µM and the TGI (HOP-62 NSCLC) was 67.4 µM. For the same compound, the TGI (COLO 205 colon) was 44.4 µM, the TGI (MALME-3M melanoma) was 44.8 µM and the TGI (DMS 114 small cell lung) was 20.6 µM. The TGI (LOX IMVI melanoma) was 37.2 µM, the TGI (IGROV1 ovarian) was 55.9 µM and the TGI (OVCAR-5 ovarian) was 51.7 µM. For the same compound, the TGI (HL-60(TB) leukemia) was 7.32 µM, the TGI (UO-31 renal) was 40.6 µM and the TGI (SF-295 CNS) was 38.7 µM. It also gave a TGI (A549 NSCLC) of 52.5 µM, a TGI (RPMI-8226 leukemia) of 36.9 µM and a TGI (SW-620 colon) of 46.5 µM. It also gave a TGI (U251 CNS) of 24.3 µM, a TGI (A498 renal) of 8.32 µM and a TGI (SK-MEL-28 melanoma) of 46.9 µM.
